Data from ChEMBL document CHEMBL1123236, “Cardiac glycosides. 7. Sugar stereochemistry and cardiac glycoside activity” (J Med Chem, 1986).

What follows are compounds tested against Sodium/potassium-transporting ATPase (assay: Inhibition of hog kidney Na+, K+-dependent ATPase). Conditions: read-out: I50.
Type: protein-complex assay, Sus scrofa

Row | Compound | IC50 [nM]
1 | C[C@H]1O[C@@H](O[C@H]2CC[C@@]3(C)[C@H](CC[C@@H]4[C@@H]3CC[C@]3(C)[C@@H](C5=CC(=O)OC5)CC[C@]43O)C2)C[C@H](O)[C@@H]1O | 7.04
2 | C[C@]12CC[C@H](O[C@@H]3O[C@@H](CO)[C@H](O)[C@@H](O)[C@H]3O)C[C@H]1CC[C@@H]1[C@@H]2CC[C@]2(C)[C@@H](C3=CC(=O)OC3)CC[C@]12O | 87
3 | C[C@]12CC[C@H](O[C@H]3O[C@H](CO)[C@@H](O)[C@H](O)[C@H]3O)C[C@H]1CC[C@@H]1[C@@H]2CC[C@]2(C)[C@@H](C3=CC(=O)OC3)CC[C@]12O (stereo in doubt; 3c) | 129
4 | C[C@]12CC[C@H](O[C@H]3O[C@H](CO)[C@@H](O)[C@H](O)[C@H]3O)C[C@H]1CC[C@@H]1[C@@H]2CC[C@]2(C)[C@@H](C3=CC(=O)OC3)CC[C@]12O (stereo in doubt; 3d) | 38.9
5 | C[C@]12CC[C@H](O[C@H]3O[C@H](CO)[C@@H](O)[C@H](O)[C@H]3O)C[C@H]1CC[C@@H]1[C@@H]2CC[C@]2(C)[C@@H](C3=CC(=O)OC3)CC[C@]12O (stereo in doubt; 4a) | 60.3
6 | C[C@]12CC[C@H](O[C@H]3O[C@H](CO)[C@@H](O)[C@H](O)[C@H]3O)C[C@H]1CC[C@@H]1[C@@H]2CC[C@]2(C)[C@@H](C3=CC(=O)OC3)CC[C@]12O (stereo in doubt; 4b) | 16
7 | C[C@]12CC[C@H](O[C@H]3O[C@H](CO)[C@@H](O)[C@H](O)[C@H]3O)C[C@H]1CC[C@@H]1[C@@H]2CC[C@]2(C)[C@@H](C3=CC(=O)OC3)CC[C@]12O (stereo in doubt; 4c) | 93.3
8 | C[C@]12CC[C@H](O[C@H]3O[C@H](CO)[C@@H](O)[C@H](O)[C@H]3O)C[C@H]1CC[C@@H]1[C@@H]2CC[C@]2(C)[C@@H](C3=CC(=O)OC3)CC[C@]12O (stereo in doubt; 4d) | 10.5
9 | CC12CCC(O[C@H]3O[C@H](CO)[C@H](O)[C@H](O)[C@H]3O)CC1CCC1C2CC[C@]2(C)C(C3=CC(=O)OC3)CCC12O (stereo in doubt; form 1) | 64.5
10 | C[C@@H]1O[C@@H](O[C@H]2CC[C@@]3(C)[C@H](CC[C@@H]4[C@@H]3CC[C@]3(C)[C@@H](C5=CC(=O)OC5)CC[C@]43O)C2)[C@H](O)[C@H](O)[C@H]1O (stereo in doubt; form 1) | 4.79
11 | CC12CCC(O[C@H]3O[C@H](CO)[C@H](O)[C@H](O)[C@H]3O)CC1CCC1C2CC[C@]2(C)C(C3=CC(=O)OC3)CCC12O (stereo in doubt; form 2) | 17.8
12 | C[C@@H]1O[C@@H](O[C@H]2CC[C@@]3(C)[C@H](CC[C@@H]4[C@@H]3CC[C@]3(C)[C@@H](C5=CC(=O)OC5)CC[C@]43O)C2)[C@H](O)[C@H](O)[C@H]1O (stereo in doubt; form 2) | 6.79
13 | C[C@]12CC[C@H](O[C@@H]3O[C@@H](CO)[C@@H](O)[C@H](O)[C@@H]3O)C[C@H]1CC[C@@H]1[C@@H]2CC[C@]2(C)[C@@H](C3=CC(=O)OC3)CC[C@]12O (stereo in doubt; form 2) | 10.7
